Source: US20230407243A1, “GENETIC PLATFORM TO INVESTIGATE THE FUNCTIONS OF BACTERIAL DRUG EFFLUX PUMPS” (priority 2022, published 2023)
Like-named read-outs stand apart in the source and are kept apart here.

How the values were obtained:
Format in all cases: cell-based, Escherichia coli
[1] = test system: EKO-35-Pore; assay: MIC susceptibility profiling, porinated strain; settings: for Fold changes of MICs: EKO-35-Pore compared to EKO-35-Pore (reference); for MIC: Escherichia coli, technical duplicate
In short: (§1)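 MIC values come from background-corrected OD600 readings (pre-incubation OD subtracted) after 18 h at 37 °C and 900 rpm in MHB II. Compounds were tested in duplicate as 2-fold dilutions. The inoculum came from 18 h LB cultures adjusted to OD600 ~1.0 and diluted 1/2000, and the pore-bearing strains were vancomycin-checked beforehand.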

[2] = test system: EKO-35 araC::acrB Pore; assay: MIC susceptibility profiling, porinated efflux platform; settings: for Fold changes of MICs: EKO-35 araC::acr-B Pore compared to EKO-35-Pore; for MIC: Escherichia coli, Table 14A, porinated, technical duplicate, read-out: Minimum inhibitory concentration, EKO-35 araC::acrB Pore
In short: as §1

[3] = test system: EKO-35 araC::acrBD408A Pore; assay: as above; settings: for Fold changes of MICs: EKO-35 araC::acrBD408A Pore compared to EKO-35-Pore; for MIC: Escherichia coli, EKO-35 araC::acrBD408A Pore, technical duplicate, read-out: Minimum inhibitory concentration
In short: as §1

[4] = test system: EKO-35 araC::acrD Pore; assay: as above; settings: for Fold changes of MICs: EKO-35 araC::acrD Pore compared to EKO-35-Pore; for MIC: Escherichia coli, Table 14A, porinated, technical duplicate, read-out: Minimum inhibitory concentration, EKO-35 araC::acrD Pore
In short: as §1

[5] = test system: EKO-35 araC::emrAB Pore; assay: as above; settings: for Fold changes of MICs: EKO-35 araC::emrAB Pore compared to EKO-35-Pore; for MIC: Escherichia coli, EKO-35 araC::emrAB Pore, technical duplicate, read-out: Minimum inhibitory concentration
In short: as §1

[6] = test system: EKO-35 araC::mdtBC Pore; assay: as above; settings: for Fold changes of MICs: EKO-35 araC::mdtBC Pore compared to EKO-35-Pore; for MIC: Escherichia coli, EKO-35 araC::mdtBC Pore, technical duplicate, read-out: Minimum inhibitory concentration
In short: as §1

[7] = test system: EKO-35 araC::mexCD Pore; assay: as above; settings: for Fold changes of MICs: EKO-35 araC::mexCD Pore compared to EKO-35-Pore; for MIC: Escherichia coli, EKO-35 araC::mexCD Pore, technical duplicate, read-out: Minimum inhibitory concentration
In short: as §1

[8] = test system: EKO-35 acrBD408A
Description: (§2) Synergy measurement using checkerboard analysis was performed in 96-well microtiter plates using the microdilution broth method, according to CLSI guidelines (Patel J. B., 2015). The cell inocula were prepared using the colony resuspension method. The minimum inhibitory concentrations (MICs) were defined as the lowest concentration that provided no growth, as determined by measurement of the OD600nm using a Synergy H1 microplate reader (BioTek). Susceptibility testing was performed in MHB II with a final volume of 100 μL. PAI3N (Bachem Americas) was solubilized in MHB II. […] Solvent controls were included in each plate.
(§3) The Fractional Inhibitory Concentration Index (FICI) was used to assess the synergy of PAI3N in combination with different antibiotics. The FICI represents the ΣFIC of each drug. The FICI for each drug was calculated using the following formula: FICI=FICA+FICB=(CA/MICA)+(CB/MICB). Where MICA and MICB are the MICs of drugs A (PAI3N/NMP) and B (antibiotic) alone, and CA and CB are the MICs of the drugs in combination. The effects of PAβN or NMP in combination with antibiotics were classified as: synergistic (FICI<0.5), additive (FICI>0.5-1.0), indifferent (FICI>1.0-2.0), and antagonistic (FICI>2.0). Fold increases in resistance provided by efflux pumps were calculated by dividing the MIC values of strains expressing efflux pumps by the MIC value of EKO-35.

[9] = test system: ΔtolC
Description: as §2, §3

[10] = Table 10, with pore, read-out: Minimum inhibitory concentration (MIC), Pore EKO-35
[11] = Table 14A, porinated, read-out: Minimum inhibitory concentration, EKO-35-Pore
[12] = EKO-35 acrBD408A, NMP + antibiotic
[13] = strain EKO-35 acrBD408A, NMP + antibiotic
[14] = strain EKO-35 acrBD408A, antibiotic alone
[15] = strain ΔtolC, antibiotic in combination with NMP
[16] = EKO-35 acrBD408A, PAβN + antibiotic
[17] = EKO-35 acrBD408A, antibiotic alone (PAβN checkerboard)
[18] = EKO-35 acrBD408A, antibiotic in combination with PAβN
[19] = strain EKO-35 acrBD408A, antibiotic in combination with NMP
[20] = ΔtolC, antibiotic alone (PAβN checkerboard)
[21] = ΔtolC, antibiotic in combination with PAβN

Structure (SMILES)	Fold changes of MICs [1]	MIC [1, 10]	MIC [1, 11]	Fold changes of MICs [2]	MIC [2]	Fold changes of MICs [3]	MIC [3]	MIC [4]	MIC [5]	MIC [6]	MIC [7]	FICI [8, 12]	Effect [8, 13]	FICI [8, 13]	MICb Alone [8, 14]	Effect ([9]; strain ΔtolC, NMP + antibiotic)	FICI ([9]; strain ΔtolC, NMP + antibiotic)	MICb Alone ([9]; strain ΔtolC, antibiotic alone)	MICb Combined [9, 15]	FICI ([9]; ΔtolC, NMP + antibiotic)	also measured
CC[n+]1c(-c2ccccc2)c2cc(N)ccc2c2ccc(N)cc21 [ethidium bromide]	1 fold	0.098 µg/mL	0.098 µg/mL	64 fold	6.25 µg/mL	1 fold	0.098 µg/mL	0.195 µg/mL	0.098 µg/mL	0.098 µg/mL	0.781 µg/mL	0.750	Additive (additive (FICI >0.5-1.0))	0.750	0.488 µg/mL	Synergistic (Synergy (FICI ≤0.5))	0.281	7.81 µg/mL	1.95 µg/mL	0.281	Fold changes of MICs [4]: 2 fold; Fold changes of MICs [5]: 1 fold; Fold changes of MICs [6]: 1 fold; Fold changes of MICs [7]: 8 fold
Cc1onc(-c2ccccc2)c1C(=O)N[C@@H]1C(=O)N2[C@@H]1SC(C)(C)[C@@H]2C(=O)O [oxacillin]	–	0.313 µg/mL	0.313 µg/mL	–	20 µg/mL	–	0.156 µg/mL	20 µg/mL	0.313 µg/mL	0.313 µg/mL	2.5 µg/mL	2.000	— (indifferent (FICI >1.0))	2.000	0.13 µg/mL	Additive (additive (FICI >0.5-1.0))	0.531	1 µg/mL	0.5 µg/mL	0.531	Effect [8, 16]: Synergistic; FICI [8, 16]: 0.185; MICb Alone [8, 17]: 1 µg/mL; MICb Combined [8, 18]: 0.06 µg/mL; MICb Combined [8, 19]: 0.13 µg/mL; Effect ([9]; ΔtolC, NMP + antibiotic): Additive; Effect ([9]; ΔtolC, PAβN + antibiotic): Synergistic; FICI ([9]; ΔtolC, PAβN + antibiotic): 0.313; MICb Alone [9, 20]: 1 µg/mL; MICb Combined [9, 21]: 0.25 µg/mL
CC(=O)NC[C@H]1CN(c2ccc(N3CCOCC3)c(F)c2)C(=O)O1 [linezolid]	1 fold	3.91 µg/mL	3.91 µg/mL	16 fold	62.5 µg/mL	1 fold	3.91 µg/mL	7.81 µg/mL	7.81 µg/mL	3.91 µg/mL	7.81 µg/mL	0.516	Additive (additive (FICI >0.5-1.0))	0.516	16 µg/mL	— (indifferent (FICI >1.0))	2.000	8 µg/mL	8 µg/mL	2.000	Fold changes of MICs [4]: 2 fold; Fold changes of MICs [5]: 2 fold; Fold changes of MICs [6]: 1 fold; Fold changes of MICs [7]: 2 fold; Effect [8, 12]: Additive; Effect [8, 16]: Additive; FICI [8, 16]: 0.750; MICb Alone [8, 17]: 16 µg/mL; MICb Combined [8, 18]: 4 µg/mL; MICb Combined [8, 19]: 8 µg/mL; Effect ([9]; ΔtolC, PAβN + antibiotic): Additive; FICI ([9]; ΔtolC, PAβN + antibiotic): 0.750; MICb Alone [9, 20]: 8 µg/mL; MICb Combined [9, 21]: 2 µg/mL
CC(=O)O[C@H]1C[C@@]2(C)[C@@H](C[C@@H](O)[C@H]3[C@@]4(C)CC[C@@H](O)[C@@H](C)[C@@H]4CC[C@@]32C)/C1=C(\CCC=C(C)C)C(=O)O [fusidic acid]	1 fold	0.391 µg/mL	0.391 µg/mL	256 fold	–	1 fold	0.391 µg/mL	12.5 µg/mL	1.56 µg/mL	0.391 µg/mL	1.56 µg/mL	0.500	Synergistic (Synergy (FICI ≤0.5))	0.500	4 µg/mL	Additive (additive (FICI >0.5-1.0))	0.625	4 µg/mL	0.5 µg/mL	0.625	Fold changes of MICs [4]: 32 fold; Fold changes of MICs [5]: 4 fold; efflux pump-mediated resistance vs EKO-35-Pore ([5]; EmrAB, porinated strain): associated with resistance; Fold changes of MICs [6]: 1 fold; Fold changes of MICs [7]: 4 fold; Effect [8, 12]: Synergistic; Effect [8, 16]: Synergistic; FICI [8, 16]: 0.250; MICb Alone [8, 17]: 4 µg/mL; MICb Combined [8, 18]: 0.5 µg/mL; MICb Combined [8, 19]: 1 µg/mL; Effect ([9]; ΔtolC, NMP + antibiotic): Additive; Effect ([9]; ΔtolC, PAβN + antibiotic): Synergistic; FICI ([9]; ΔtolC, PAβN + antibiotic): 0.375; MICb Alone [9, 20]: 2 µg/mL; MICb Combined [9, 21]: 0.25 µg/mL
